Source: ChEMBL document CHEMBL2094269, “WEHI/Eskitis Trypanosoma b. brucei screening data”
Several values for one entry are separate records, joined by “and”; a condition that tells them apart may be missing. Identical values can stand only once.

Tests used:
[1] = DNDI: Cytotoxicity against human MRC-5 lung fibroblast cells.; settings: IC50
[2] = system: Trypanosoma brucei brucei; assay: microbe, parasite or virus in culture; assay type: functional, organism-based, STIB 795
Description: DNDI: Inhibition of Human African Trypanosomiasis (HAT), STIB 795, in vitro

Row | SMILES | IC50 [1] [µM] | IC50 ([2]; Trypanosoma brucei, STIB 795) [µM] | IC50 [2]
1 | CC1(C)CCC[C@]2(C)C=C(C3OCCO3)C(=O)C[C@@H]12 | > 41.7 | 5.21 | 
2 | CC(=O)NC(c1ccccc1C)c1ccc2cccnc2c1O (stereo not given) | > 1.04 | 0.655 | 
3 | Cc1ccc(O)c(NC(=O)c2nc(N)n(C)n2)c1 | 1.84 | 0.196 | 
4 | CCN(CC)c1ccc(/C=N/n2cnnc2)c(O)c1 | > 41.7 | 1.92 | 
5 | COc1ccc(C(CC(=O)c2ccncc2)SCc2ccco2)cc1 (stereo not given) | > 41.7 | 4.3 | 
6 | O=C(/C=C/c1ccccc1)ONC(=O)c1ccc(Cl)cc1 | > 20.8 | 4.45 | 
7 | CCCCc1c(C)[nH]n(-c2nc3ccccc3[nH]2)c1=O | > 1.04 | 0.895 | 
8 | O=C1CN(Cc2ccccc2)c2ccccc2N1 | 8.3 | 1.01 | 
9 | COC(=O)c1ccc(C2N=C(c3cccs3)CC(c3ccccc3O)N2)cc1 (stereo not given) | > 41.7 | 5.51 | 
10 | C/C(=N\NC(=O)CCCNc1cccc(C)c1)c1ccccn1 | > 10.4 | 3.96 | 
11 | CC1=NN(C(=O)c2ccccc2O)C(C)(O)C1 (stereo not given) | > 1.04 | 0.66 | 
12 | C=CCn1c(-c2ccccc2Cl)nn(C2CCC3OCC2O3)c1=S (stereo not given) | > 20.8 | 3.79 | 
13 | CCS(=O)(=O)N1CCCc2ccc(NS(=O)(=O)c3cccs3)cc21 | > 41.7 | 0.796 | 
14 | O=C(NCCc1csc(-c2cccc(F)c2)n1)c1cccs1 | > 41.7 | ≤ 0.043 | 
15 | CC(CON1C(N)=NC(N)=NC1(C)C)Cc1cccc(Br)c1 (stereo not given) | > 4.17 | ≤ 3.67 | 
16 | N=c1n(Cc2ccccc2)c2ccccc2n1CC(O)c1ccc(Cl)cc1 (stereo not given) | > 20.8 | 5.48 | 5.31 µM
17 | Clc1ccc(C(OCC2CCCCN2)c2ccc(Cl)cc2)cc1 (stereo not given) | > 4.17 | 2.78 | 
18 | O=C1Nc2ccccc2/C1=C/c1ccccn1 | > 20.8 | 5.25 | 5.23 µM
19 | NC1CCCc2c1[nH]c1ccc(Cl)cc21 (stereo not given) | > 20.8 |  | 0.823 µM and 2.29 µM
20 | COc1ccccc1C1N=C(c2ccc(Cl)cc2)CC(c2ccccc2O)N1 (stereo not given) | > 41.7 | 5.24 | 
21 | CC(Cc1ccccc1)[n+]1[cH-]/c(=N\C(=N\Cc2ccccc2)N(C)C)on1 (stereo not given) | > 41.7 | 0.83 | 
22 | Cc1nnc(N/N=C/c2cc(Cl)ccc2O)nc1O | 4.74 | 3.65 | 
23 | CCC1(C)CC(CCNCc2ccccc2O)(c2ccc(F)cc2)CCO1 (stereo not given) | > 41.7 | 4.73 | 
24 | CNCCCC1Sc2ccccc2C(C)c2ccccc21 (stereo not given) | > 20.8 | 4.88 | 

Row | SMILES | IC50 [1] [µM] | IC50 ([2]; Trypanosoma brucei, STIB 795) [µM] | IC50 [2]
25 | Oc1c(CN2CCCCC2)ccc2cccnc12 | > 4.17 | 3.78 | 
26 | Cc1ccc2ccc3ccc(C)nc3c2n1 [NEOCUPROINE] | > 20.8 | 0.557 | 
27 | C=CCc1cccc(/C=N/NC(=O)c2cc(-c3ccc4ccccc4c3)n[nH]2)c1O | > 41.7 | 3 | 
28 | CC(C)NCC(O)COc1cccc2c(=O)c3ccccc3sc12 (stereo not given) | > 20.8 | 5.46 | 
29 | CC(=O)O[C@H]1CCC2C3CCC4=CC(=O)CC[C@]4(C)C3C(=O)C[C@@]21C (stereo not given in full) | 6.4 | 0.39 | 
30 | CC(C)COc1ccc2c(c1)c1c3n2CNCC3CCC1 (stereo not given) | > 20.8 | 2.88 | 
31 | COc1cc(OC)c2nc(C)c3c(c2c1)CNC3 | 7.02 | 2.5 | 
32 | Oc1c(CN2CCC(Cc3ccccc3)CC2)cc(Cl)c2cccnc12 | > 20.8 | 4.68 | 
33 | Cc1nc2c(cc(O)c3ccccc32)s1 | > 41.7 | 5.47 | 
34 | Cn1c2ccccc2c2nnc(N/N=C/c3ccccn3)nc21 | > 1.04 | 0.52 | 
35 | CCn1nc(/C=C/c2ccccc2)[n+]([O-])c2c(=O)n(C)c(=O)nc1-2 | > 20.8 | 3.67 | 
36 | CC1(C)CC(=O)C(C2=C(Cl)C(=O)c3ccccc3C2=O)=C(O)C1 | > 41.7 | 0.642 | 0.59 µM
37 | CCN1CCN(C(c2cccnc2)c2cc(Cl)c3cccnc3c2O)CC1 (stereo not given) | > 41.7 | 5.83 | 
38 | CS(=O)(=O)/C=C(\c1ccccc1)c1ccncc1 | > 20.8 | 0.641 | 
39 | Fc1ccc(C(CCCN2CCN3CCCCC3C2)c2ccc(F)cc2)cc1 (stereo not given) | > 41.7 | 5.31 | 
40 | O=C(Cc1cc(O)[nH]n1)N/N=C/C=C/c1ccccc1 | > 41.7 | 5.31 | 
41 | CCCCCOc1ccc(NC(=O)C(=O)NC2CC(C)(C)NC(C)(C)C2)cc1 | > 41.7 | 4.86 | 
42 | C1=C(N2CCNCC2)c2ccccc2Sc2ccccc21 | > 20.8 | 3.16 | 
43 | Cc1cc(N2CCN(C)CC2)c2[nH]c3ccccc3c2c1 | 7.26 | 0.748 | 
44 | CN(/C=C/C=C/C=C/C1=[N+](C)c2ccccc2C1(C)C)c1ccccc1 | > 20.8 | 1.97 | 
45 | O=C(O/N=C(/NCc1ccccc1)c1ccc(Cl)cc1)c1cccs1 | > 41.7 | 0.47 | 
46 | CCOC(=O)C/C(C)=N/Nc1ccc(-n2nc(C)c(C)c2C)nn1 | > 10.4 | 2.16 | 
47 | C[n+]1ccccc1C=C1C=CN(c2ccc(Cl)cc2)C=C1 | > 4.17 | 0.028 | 
48 | Cc1ccc2[nH]c(/C(C#N)=C/c3ccc(O)c(O)c3)nc2c1 | > 20.8 | 1.51 | 

Row | SMILES | IC50 [1] [µM] | IC50 ([2]; Trypanosoma brucei, STIB 795) [µM] | IC50 [2]
49 | NCC(c1ccc(Cl)cc1)c1ccc(-c2ccccc2)cc1 (stereo not given) | > 41.7 | 4.59 | 
50 | CN(C)CCCNc1nc(-c2ccc(Cl)cc2)nc2ccccc12 | > 20.8 | 3.74 | 
51 | Cc1cc(Cl)n(C)c2nc3ccccc3c1-2 | > 10.4 | 0.631 | 
52 | CC(C)NC[C@]1(C)CCC[C@]2(C)c3ccc(C(C)C)cc3CC[C@@H]12 | > 41.7 | 0.47 | 
53 | COc1ccc(-c2cs/c(=N\CC3CCNCC3)n2-c2ccccc2)cc1 | > 20.8 | 5.74 | 
54 | CN(C)c1ccc(/C=C/c2cc(-c3ccccc3)o[n+]2C)cc1 | > 2.08 | 0.133 | 
55 | CCN1C(=Cc2sc3ccc(Cl)cc3[n+]2CC)C=Cc2cc(OC)ccc21 | > 4.17 | 0.706 | 
56 | O=C1CC(n2nnnc2-c2ccccc2)C2COC1O2 (stereo not given) | > 20.8 | 2.18 | 
57 | Clc1cc2c(c3ncccc13)OCN(CCC1=CCCCC1)C2 | > 20.8 | 1.05 | 
58 | Cc1cc(C)c2c(c1)CC(C)(C)C(=O)C2=O | > 41.7 | 3.3 | 
59 | Nc1nonc1C(=O)N/N=C/c1c(O)ccc2ccccc12 | > 4.17 | 5.33 | 
60 | COc1cc(OC)nc(-n2ncc(Cl)c(Cl)c2=O)n1 | 4.53 | 5.32 | 
61 | CCCCNCc1[nH]c2ccccc2c1Cl | > 20.8 | 3.1 | 
62 | CC1(C)CC(=S)C=C(N2CCCCC2)C1 | > 41.7 | 1.95 | 
63 | O=C1CC(n2nnn(-c3ccccc3Cl)c2=S)C2COC1O2 (stereo not given) | > 41.7 | 4.6 | 
64 | CCN1CCCC(Nc2ccnc3cc4ccccc4cc23)C1 (stereo not given) | 4.95 | 0.275 | 
65 | C=CCc1ccc(OCCCCCN2CCNCC2)c(OC)c1 | > 41.7 | 3.19 | 
66 | O=C(N/N=C/c1c(O)ccc2ccccc12)c1cc[nH]n1 | > 20.8 | 2.68 | 
67 | c1ccc(NN=C(c2ccccn2)c2ccccn2)nc1 | > 1.04 | 0.468 | 
68 | Cc1ccc(C(OCC(C)(C)C[N+](C)(C)C)c2ccccc2)cc1 (stereo not given) | > 41.7 | 6.71 | 
69 | CN(C)CCCNCCCc1ccc(C(C)(C)C)cc1 | 8.02 | 0.079 | 
70 | CC1(C)CC(=O)c2sc(NC(=O)c3sc4ccccc4c3Cl)nc2C1 | > 41.7 | 0.442 | 
71 | C=CCn1c(-c2cccs2)nn(C2CC(=O)C3OCC2O3)c1=S (stereo not given) | > 20.8 | 4.75 | 4.4 µM
72 | Oc1c(Cl)cc(CN2CCCC2)c2cccnc12 | > 4.17 | 4.32 | 

Row | SMILES | IC50 [1] [µM] | IC50 ([2]; Trypanosoma brucei, STIB 795) [µM] | IC50 [2]
73 | COc1ccc(C(=O)O/N=C(\N)Cc2cccs2)cc1OC | > 20.8 | 1.61 | 
74 | COc1cc2nc(N(C)C)nc(N)c2cc1OC | > 20.8 | 5.21 | 
75 | COC(=O)c1nc(-c2ccccc2)nc(-c2ccccc2)c1C(=O)OC | > 4.17 | 4.78 | 
76 | O=C(N/N=C\c1cc(Cl)ccc1O)c1cccs1 | > 41.7 | 10.9 | 
77 | CC(C)NCC(O)CNc1cccc2c1C(=O)c1ccccc1C2=O (stereo not given) | > 4.17 | 3.42 | 
78 | C[n+]1ccc(/C=C/c2c[nH]c3ccc(Br)cc23)cc1 | > 4.17 | 5.26 | 
79 | O=C(/C=C/c1ccccc1Cl)Nc1ccc2ccccc2c1 | > 41.7 | 6.12 | 
80 | O=C(N/N=C/c1c(O)ccc2ccccc12)c1cc(Br)ccc1O | > 4.17 | 3.77 | 
81 | COc1ccc(/C(N)=N/OC(=O)c2cc(OC)c(OC)cc2OC)cc1OC | > 41.7 | 0.798 | 
82 | CC(=O)NC1=C(N2CCN(C(=O)c3ccco3)CC2)C(=O)c2ccccc2C1=O | > 41.7 | 5.41 | 5.36 µM
83 | Cc1[nH]c2ccccc2c1/C=C1\SC(=N)N(c2nccs2)C1=O | > 20.8 | 2.15 | 
84 | CCCC[n+]1cc(-c2ccccc2)nc(N2CCCCC2)n1 | > 41.7 | 7.6 | 
85 | Cc1ccc2oc(SCC(=O)Nc3nc4ccccc4s3)nc2n1 | > 20.8 | 2.16 | 
86 | Cn1ccnc1Sc1cnn(-c2ccccc2)c(=O)c1Cl | > 20.8 | 5.27 | 
87 | CCN(CC)c1ccc(/C=N/NC(=O)c2nn(C)cc2Cl)c(O)c1 | > 41.7 | 1.44 | 
88 | O=S(=O)(Nc1cccc2cccnc12)c1ccccc1O | > 10.4 | 0.521 | 
89 | Cc1cc(C)c(C(=O)CC(N2CCCCC2)C(F)(F)F)c(=O)[nH]1 (stereo not given) | > 20.8 | 2.27 | 
90 | CCN(CC)c1ccc(/C=N\NC(=O)Cc2cccn2C)c(O)c1 | > 4.17 | 3.62 | 
91 | Cc1ccccc1C(=O)Nc1ccccn1 | > 41.7 | 1.22 | 
92 | CCc1ccc2nc3nc(C)cc(C)c3c(N)c2c1 | > 20.8 | 4.86 | 
93 | Cc1nnc(N/N=C/c2cc(Br)ccc2O)nc1O | 3.41 | 3 | 
94 | COc1ccc(C2=NC3(CCN(C(C)C)CC3)NC(c3ccccc3O)C2)cc1 (stereo not given) | > 20.8 | 1.37 | 
95 | CC(C)(C)c1ccc(C(=O)O/N=C(\N)c2ccncc2)cc1 | > 41.7 | 0.95 | 
